From patent US20260234139A1, “PGDH INHIBITORS AND METHODS OF MAKING AND USING” (Epirium Bio Inc., priority 2023, published 2026)

Legend:
15-PGDH/HPGD = target: T1, 15-PGDH/HPGD (Homo sapiens, UniProt P15428); assay: hPGDH inhibitor screening biochemical assay; conditions: 10 nM enzyme, 15 μM Prostaglandin E2, 0.25 mM NAD, fluorescence ex/em 340/485 nm
T1 construct: purchased R&D System 5660-DH
T1 sequence (P15428 1-266): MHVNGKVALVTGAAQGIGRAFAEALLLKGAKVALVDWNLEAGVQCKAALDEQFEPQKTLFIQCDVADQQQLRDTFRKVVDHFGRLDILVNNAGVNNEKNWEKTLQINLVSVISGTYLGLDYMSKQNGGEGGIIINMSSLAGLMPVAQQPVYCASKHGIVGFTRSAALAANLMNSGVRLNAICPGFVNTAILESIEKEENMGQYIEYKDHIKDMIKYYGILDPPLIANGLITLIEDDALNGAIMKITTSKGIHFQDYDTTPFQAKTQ
Method in brief: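 Recombinant 15-PGDH (10 nM) preincubated with compound 10 min at 37° C, then 15 μM PGE2 and 0.25 mM NAD⁺ added for 10 min at room temperature in 50 mM Tris-HCl pH 7.5, 0.01% Tween 20. NADH fluorescence at ex/em 340/485 nm; 10-point dose response.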

A549 = A549 EC50 (cell assay, method not described); type: cell-based; conditions: Homo sapiens, A549, A549

`C[C@H](OC1CCC1)[C@@H](O)c1cnc2c(cnn2-c2ccc(C(=O)O)cc2)c1` [Compound 108D] was tested, and the IC50 (15-PGDH/HPGD) was under 0.1 µM and the EC50 (A549) was 0.1 to 1 µM.

In the case of `Cc1nn(-c2ccc(C(=O)O)cc2)c2ncc([C@@H](O)COC3CCC3)cc12` [Compound 109A], the IC50 (15-PGDH/HPGD) is reported as under 0.1 µM and the EC50 (A549) is reported as at least 1 µM.

`Cc1nn(-c2ccc(C(=O)O)cc2)c2ncc([C@H](O)COC3CCC3)cc12` [Compound 109B] showed an IC50 (15-PGDH/HPGD) of under 0.1 µM and an EC50 (A549) of under 0.1 µM.

`CNC(=O)c1cccc(-n2ncc3cc([C@@H](O)COC4CCC4)cnc32)c1` [Compound 110A] gave an IC50 (15-PGDH/HPGD) of under 0.1 µM and an EC50 (A549) of under 0.1 µM.

With `CNC(=O)c1cccc(-n2ncc3cc([C@H](O)COC4CCC4)cnc32)c1` [Compound 110B] the IC50 (15-PGDH/HPGD) was at least 1 µM and the EC50 (A549) was at least 1 µM.

`CN(C)C(=O)c1cccc(-n2ncc3cc([C@@H](O)COC4CCC4)cnc32)c1` [Compound 111A] showed an IC50 (15-PGDH/HPGD) of under 0.1 µM and an EC50 (A549) of 0.1 to 1 µM.

Work on `CN(C)C(=O)c1cccc(-n2ncc3cc([C@H](O)COC4CCC4)cnc32)c1` [Compound 111B] yielded an IC50 (15-PGDH/HPGD) of at least 1 µM and an EC50 (A549) of at least 1 µM.

With `O=C(O)c1ccc(-n2ccc3nc([C@@H](O)COCC4CC4)cnc32)cc1` [Compound 112A] the IC50 (15-PGDH/HPGD) was under 0.1 µM and the EC50 (A549) was at least 1 µM.

`O=C(O)c1ccc(-n2ccc3nc([C@H](O)COCC4CC4)cnc32)cc1` [Compound 112B] showed an IC50 (15-PGDH/HPGD) of under 0.1 µM and an EC50 (A549) of 0.1 to 1 µM.

With `O=C(O)c1ccc(-n2ncc3cc([C@@H](O)COCC4(C(F)(F)F)CC4)cnc32)cc1` [Compound 113A] the IC50 (15-PGDH/HPGD) was 0.1 to 1 µM and the EC50 (A549) was at least 1 µM.

`O=C(O)c1ccc(-n2ncc3cc([C@H](O)COCC4(C(F)(F)F)CC4)cnc32)cc1` [Compound 113B] gave an IC50 (15-PGDH/HPGD) of under 0.1 µM and an EC50 (A549) of 0.1 to 1 µM.

`O=C(O)c1ccc(-n2ncc3cc([C@@H](O)COCC4CC4)ccc32)cc1` [Compound 114A] gave an IC50 (15-PGDH/HPGD) of 0.1 to 1 µM and an EC50 (A549) of at least 1 µM.

With `O=C(O)c1ccc(-n2ncc3cc([C@H](O)COCC4CC4)ccc32)cc1` [Compound 114B] the IC50 (15-PGDH/HPGD) was under 0.1 µM and the EC50 (A549) was 0.1 to 1 µM.

`O=C(O)c1ccc(-n2ncc3cc([C@@H](O)COC4(C(F)(F)F)CCC4)cnc32)cc1` [Compound 115A] gave an IC50 (15-PGDH/HPGD) of under 0.1 µM and an EC50 (A549) of 0.1 to 1 µM.

In the case of `O=C(O)c1ccc(-n2ncc3cc([C@H](O)COC4(C(F)(F)F)CCC4)cnc32)cc1` [Compound 115B], the IC50 (15-PGDH/HPGD) is reported as under 0.1 µM and the EC50 (A549) is reported as under 0.1 µM.

`CC1(C)CC(OC[C@H](O)c2cnc3c(cnn3-c3ccc(C(=O)O)nc3)c2)C1` [Compound 116A] was tested, and the IC50 (15-PGDH/HPGD) was 0.1 to 1 µM and the EC50 (A549) was at least 1 µM.

`CC1(C)CC(OC[C@@H](O)c2cnc3c(cnn3-c3ccc(C(=O)O)nc3)c2)C1` [Compound 116B] was tested, and the IC50 (15-PGDH/HPGD) was under 0.1 µM and the EC50 (A549) was at least 1 µM.

With `O[C@@H](COC1CCC1)c1cnc2c(cnn2-c2cncc(-c3nnc[nH]3)c2)c1` [Compound 117A] the IC50 (15-PGDH/HPGD) was under 0.1 µM and the EC50 (A549) was under 0.1 µM.

Work on `O[C@H](COC1CCC1)c1cnc2c(cnn2-c2cncc(-c3nnc[nH]3)c2)c1` [Compound 117B] yielded an IC50 (15-PGDH/HPGD) of under 0.1 µM and an EC50 (A549) of under 0.1 µM.

`COCCNC(=O)c1ccc(-n2ncc3cc([C@@H](O)COC4CCC4)cnc32)cc1` [Compound 118A] gave an IC50 (15-PGDH/HPGD) of under 0.1 µM and an EC50 (A549) of under 0.1 µM.

`COCCNC(=O)c1ccc(-n2ncc3cc([C@H](O)COC4CCC4)cnc32)cc1` [Compound 118B] showed an IC50 (15-PGDH/HPGD) of 0.1 to 1 µM and an EC50 (A549) of 0.1 to 1 µM.

Work on `CSc1ccc(-n2ncc3cc([C@@H](O)COC4CCC4)cnc32)cc1` [Compound 119A] yielded an IC50 (15-PGDH/HPGD) of under 0.1 µM and an EC50 (A549) of 0.1 to 1 µM.

Compound `CSc1ccc(-n2ncc3cc([C@H](O)COC4CCC4)cnc32)cc1` [Compound 119B] has an IC50 (15-PGDH/HPGD) of at least 1 µM and an EC50 (A549) of at least 1 µM.

In the case of `O=C(O)c1ccc(-n2ncc3cc([C@H](O)C4COC4)ccc32)cc1` [Compound 120A], the IC50 (15-PGDH/HPGD) is reported as under 0.1 µM and the EC50 (A549) is reported as 0.1 to 1 µM.

Compound `CS(=O)(=O)c1ccc(-n2ncc3cc([C@@H](O)COC4CCC4)cnc32)cc1` [Compound 121A] has an IC50 (15-PGDH/HPGD) of 0.1 to 1 µM and an EC50 (A549) of 0.1 to 1 µM.

Compound `CS(=O)(=O)c1ccc(-n2ncc3cc([C@H](O)COC4CCC4)cnc32)cc1` [Compound 121B] has an IC50 (15-PGDH/HPGD) of at least 1 µM and an EC50 (A549) of at least 1 µM.

Compound `CSc1cccc(-n2ncc3cc([C@@H](O)COC4CCC4)cnc32)c1` [Compound 122A] has an IC50 (15-PGDH/HPGD) of under 0.1 µM and an EC50 (A549) of at least 1 µM.

With `CSc1cccc(-n2ncc3cc([C@H](O)COC4CCC4)cnc32)c1` [Compound 122B] the IC50 (15-PGDH/HPGD) was at least 1 µM and the EC50 (A549) was at least 1 µM.

Compound `C[S+]([O-])c1ccc(-n2ncc3cc([C@@H](O)COC4CCC4)cnc32)cc1` (some centres unmarked) [Compound 124A] has an IC50 (15-PGDH/HPGD) of under 0.1 µM and an EC50 (A549) of under 0.1 µM.

`C[S+]([O-])c1ccc(-n2ncc3cc([C@H](O)COC4CCC4)cnc32)cc1` (some centres unmarked) [Compound 124B] showed an IC50 (15-PGDH/HPGD) of at least 1 µM and an EC50 (A549) of at least 1 µM.

With `C[S+]([O-])c1cccc(-n2ncc3cc([C@@H](O)COC4CCC4)cnc32)c1` (some centres unmarked) [Compound 125A] the IC50 (15-PGDH/HPGD) was 0.1 to 1 µM and the EC50 (A549) was 0.1 to 1 µM.
